According to patent US10766928B2, “Targeted conformationally-constrained kinked endosomal disrupting peptides” (priority 2012, dated 2020):
Values after ≈ are worked out from the molar mass of the structure shown. Read-outs that look alike come from different tables or passages of the source. Non-standard residues stand in square brackets, D forms with d. Residues, ends and D or L forms follow the SMILES beside them. *: point of attachment. Pentanoyl(5-NH-cholesteryl) = CC(C)CCC[C@@H](C)[C@H]1CC[C@H]2[C@@H]3CC=C4C[C@@H](NCCCCC(=O)*)CC[C@]4(C)[C@H]3CC[C@]12C; Cholesteryloxycarbonyl = CC(C)CCC[C@@H](C)[C@H]1CC[C@H]2[C@@H]3CC=C4C[C@@H](OC(=O)*)CC[C@]4(C)[C@H]3CC[C@]12C; PEG3 = NCCOCCOCCOCCC(=O)O; Aib = CC(C)(N)C(=O)O; Ahx = NCCCCCC(=O)O; βAla = NCCC(=O)O

Tests used:
[1] = tested on: endosomes of Jurkat lymphocytes; experiment: Endosome disruption in Jurkat lymphocytes: release of carboxyfluorescein from disulfide probe Compound 2, flow cytometry; details: for Efficacy (% of max. 1): Table 1, % change in cellular fluorescence relative to maximal response of Compound 1 (100%), 14 hours; for Efficacy (% of max. 1) / Efficacy (% of 1): Jurkat; for EC50 / Efficacy (% of 1): 14 h; for Efficacy (% of 1): % of the effect of compound 1, calculated span of dose-response curve, ± standard deviation
Protocol: The effects of the compounds of the invention on human Juikat leukemia cells were evaluated using flow cytometry-based assays of potency, efficacy, and toxicity. […] Analysis of flow cytometry data by non-linear regression was used to determine IC50 values for potency with the efficacy expressed as a percentage. […] Dose-dependent effects on cellular viability after 48 h at 37° C. in culture were also measured by flow cytometry.
The # represents the compound number in accordance with Tables A, B, and C. Concentrations of compound stock solutions were determined by absorbance measurements at 280 nm. Efficacy was determined as % change in cellular fluorescence relative to the maximal response of Compound 1, defined as 100%. Potencies and efficacies in Jurkat lymphocytes were measured by flow cytometry after treatment of cells with the compounds listed and the fluorescent probe Compound 2 (2.5 μM) for 14 hours. Toxicity to this cell line was determined by flow cytometry analysis of light scattering and counterstaining with PI after treatment for 48 h at 37° C. in culture. […] N.D., not determined.
Cells were treated with fluorescent molecular probe Compound 2 (2.5 μM) and endosome disruptors for 14 hours at 37° C. Enhanced cellular fluorescence resulting from release of the pH-sensitive fluorophore Compound 3 into the cytoplasm was quantified by flow cytometry.
Natural amino acids are represented by single letter codes. Codes for non-standard elements are as follows: Ch1: (3β-Cholest-5-en-3-yl-ammonio)pentanoyl; Ch2: (Cholester-3-yl)oxy-βAla-βAla; X: ε-Ahx; U: Aib; PB: Pacific Blue fluorophore. O: 3-(2-(2-(2-aminoethoxy)ethoxy)ethoxy)propanyl.

[2] = Thermodynamic solubility in PBS (pH 7.4); assay type: physicochemical; details: phosphate buffered saline
Description: Values in parentheses represent 95% confidence intervals. N.D., not determined.
Measurements represent duplicate or more replicates, with active peptides subjected to multiple replicates. ND: not determined. The peptide was non-toxic and soluble in cell culture medium at this concentration.

[3] = read-out: Potency, Table 2, EC50 ± standard deviation, Jurkat lymphocytes, disulfide-linked fluorescent probe (2.5 μM)
[4] = pH 7.4, Table 3, PBS pH 7.4, 24 h at 22° C., read-out: Solubility

| Compound | Efficacy (% of max. 1) [1] | EC50 [1, 3] | solubility thermodynamic at 24 h [2, 4] | EC50 [1] | Efficacy (% of 1) ([1]; Table 2) | further results |
| --- | --- | --- | --- | --- | --- | --- |
| CC(C)[C@H](NC(=O)[C@H](C)NC(=O)[C@@H]1CCCN1C(=O)[C@@H]1CCCN1C(=O)[C@H](Cc1c[nH]c2ccccc12)NC(=O)[C@H](Cc1ccc(O)cc1)NC(=O)[C@H](C)NC(=O)[C@H](Cc1c[nH]c2ccccc12)NC(=O)[C@H](Cc1c[nH]c2ccccc12)NC(=O)C(C)(C)NC(=O)C(C)(C)NC(=O)C(C)(C)NC(=O)C(C)(C)N)C(N)=O [Compound 51] (H-[Aib][Aib][Aib][Aib]WWAYWPPAV-NH2) | <50% | > 15 µM | 48 ± 3 µM (≈ 72.7 µg/mL) | – | – | – |
| CC(C)CCC[C@@H](C)[C@H]1CC[C@H]2[C@@H]3CC=C4C[C@@H](NCCCCC(=O)NCCC(=O)N[C@@H](CCC(=O)O)C(=O)N[C@@H](CCC(=O)O)C(=O)NCCCCCC(=O)NC(C)(C)C(=O)NC(C)(C)C(=O)NC(C)(C)C(=O)N[C@@H](Cc5c[nH]c6ccccc56)C(=O)N[C@@H](Cc5c[nH]c6ccccc56)C(=O)N[C@@H](C)C(=O)N[C@@H](C)C(=O)N[C@@H](Cc5c[nH]c6ccccc56)C(=O)N5CCC[C@H]5C(=O)N5CCC[C@H]5C(=O)N[C@H](C(=O)N[C@@H](C)C(N)=O)C(C)C)CC[C@]4(C)[C@H]3CC[C@]12C [Compound 14, R = BEEXUUUWWAAWPPVA-CONH2] ({Pentanoyl(5-NH-cholesteryl)-βAla}-EE[Ahx][Aib][Aib][Aib]WWAAWPPVA-NH2) | – | – | – | 1.2 µM | – | – |
| CC(C)[C@H](NC(=O)[C@@H](NC(=O)[C@@H]1CCCN1C(=O)[C@@H]1CCCN1C(=O)[C@H](Cc1c[nH]c2ccccc12)NC(=O)[C@H](Cc1ccc(O)cc1)NC(=O)[C@H](C)NC(=O)[C@H](Cc1c[nH]c2ccccc12)NC(=O)[C@H](C)NC(=O)C(C)(C)NC(=O)C(C)(C)NC(=O)C(C)(C)NC(=O)C(C)(C)N)C(C)C)C(N)=O [Compound 45] (H-[Aib][Aib][Aib][Aib]AWAYWPPVV-NH2) | <<50% | – | 86 ± 5 µM (≈ 123 µg/mL) | – | <10% | – |
| CC(C)[C@H](NC(=O)[C@@H](NC(=O)[C@@H]1CCCN1C(=O)[C@@H]1CCCN1C(=O)[C@H](Cc1c[nH]c2ccccc12)NC(=O)[C@H](C)NC(=O)[C@H](C)NC(=O)[C@H](Cc1c[nH]c2ccccc12)NC(=O)[C@H](Cc1c[nH]c2ccccc12)NC(=O)C(C)(C)NC(=O)C(C)(C)NC(=O)C(C)(C)NC(=O)C(C)(C)N)C(C)C)C(N)=O [Compound 47] (H-[Aib][Aib][Aib][Aib]WWAAWPPVV-NH2) | <<50% | > 15 µM | 63 ± 3 µM (≈ 91.4 µg/mL) | – | – | – |
| CC(C)CCC[C@@H](C)[C@H]1CC[C@H]2[C@@H]3CC=C4C[C@@H](OC(=O)NCCC(=O)NCCC(=O)N[C@@H](CCC(=O)O)C(=O)N[C@@H](CCC(=O)O)C(=O)NCCOCCOCCOCCC(=O)NCCOCCOCCOCCC(=O)NC(C)(C)C(=O)NC(C)(C)C(=O)NC(C)(C)C(=O)NC(C)(C)C(=O)N[C@@H](Cc5c[nH]c6ccccc56)C(=O)N[C@@H](Cc5ccc(O)cc5)C(=O)N[C@@H](C)C(=O)N[C@@H](Cc5c[nH]c6ccccc56)C(=O)N[C@@H](Cc5ccc(O)cc5)C(=O)N[C@@H](C)C(=O)N[C@@H](Cc5c[nH]c6ccccc56)C(=O)N[C@@H](Cc5ccc(O)cc5)C(=O)N5CCC[C@H]5C(=O)N5CCC[C@H]5C(=O)N[C@H](C(=O)N[C@H](C(N)=O)C(C)C)C(C)C)CC[C@]4(C)[C@H]3CC[C@]12C [Compound 84, Ch2-EEOOUUUUWYAWYAWYPPVV-NH2] ({Cholesteryloxycarbonyl-βAla-βAla}-EE[PEG3][PEG3][Aib][Aib][Aib][Aib]WYAWYAWYPPVV-NH2) | – | – | 21 ± 1 µM (≈ 66.4 µg/mL) | – | – | – |
| CC(C)CCC[C@@H](C)[C@H]1CC[C@H]2[C@@H]3CC=C4C[C@@H](NCCCCC(=O)NCCC(=O)N[C@@H](CCC(=O)O)C(=O)N[C@@H](CCC(=O)O)C(=O)NCCCCCC(=O)NCCCCCC(=O)NC(C)(C)C(=O)NC(C)(C)C(=O)NC(C)(C)C(=O)NC(C)(C)C(=O)N[C@@H](Cc5ccccc5)C(=O)N[C@@H](Cc5ccccc5)C(=O)N[C@@H](C)C(=O)N[C@@H](Cc5ccccc5)C(=O)N[C@@H](Cc5ccccc5)C(=O)N5CCC[C@H]5C(=O)N5CCC[C@H]5C(=O)N[C@H](C(=O)N[C@@H](C)C(N)=O)C(C)C)CC[C@]4(C)[C@H]3CC[C@]12C [Compound 22, R = BEEXXUUUUFFAFFPPVA-CONH2] ({Pentanoyl(5-NH-cholesteryl)-βAla}-EE[Ahx][Ahx][Aib][Aib][Aib][Aib]FFAFFPPVA-NH2) | – | – | – | > 10 µM | – | – |
| Ac-SSAWWSYWPPVA-NH2 [Compound 39, reference compound] | <<50% | – | 137 ± 8 µM | – | <2% | Endosome disruption activity (in words) ([1]; Jurkat endosome disruption assay): devoid of biological activity; solubility thermodynamic at 24 h ([2]; pH 7.4, Table 1, PBS pH 7.4, 24 hours at 22° C., ±S.D., read-out: Solubility (aq.)): 173 ± 11 µM |
| CC(C)[C@H](NC(=O)[C@@H](NC(=O)[C@@H]1CCCN1C(=O)[C@@H]1CCCN1C(=O)[C@H](C)NC(=O)[C@H](Cc1ccc(O)cc1)NC(=O)[C@H](C)NC(=O)[C@H](Cc1c[nH]c2ccccc12)NC(=O)[C@H](Cc1c[nH]c2ccccc12)NC(=O)C(C)(C)NC(=O)C(C)(C)NC(=O)C(C)(C)NC(=O)C(C)(C)N)C(C)C)C(N)=O [Compound 48] (H-[Aib][Aib][Aib][Aib]WWAYAPPVV-NH2) | <<50% | – | 86 ± 5 µM (≈ 123 µg/mL) | – | <10% | – |
| CC(C)CCC[C@@H](C)[C@H]1CC[C@H]2[C@@H]3CC=C4C[C@@H](NCCCCC(=O)NCCC(=O)N[C@@H](CCC(=O)O)C(=O)N[C@@H](CCC(=O)O)C(=O)NCCCCCC(=O)NC(C)(C)C(=O)NC(C)(C)C(=O)NC(C)(C)C(=O)N[C@@H](Cc5c[nH]c6ccccc56)C(=O)N[C@@H](Cc5c[nH]c6ccccc56)C(=O)N[C@@H](C)C(=O)N[C@@H](Cc5ccc(O)cc5)C(=O)N[C@@H](Cc5c[nH]c6ccccc56)C(=O)N[C@@H](C)C(=O)N5CCC[C@H]5C(=O)N[C@H](C(=O)N[C@@H](C)C(N)=O)C(C)C)CC[C@]4(C)[C@H]3CC[C@]12C [Compound 16, R = BEEXUUUWWAYWAPVA-CONH2] ({Pentanoyl(5-NH-cholesteryl)-βAla}-EE[Ahx][Aib][Aib][Aib]WWAYWAPVA-NH2) | – | – | – | 1.6 µM | – | – |
| CC(C)CCC[C@@H](C)[C@H]1CC[C@H]2[C@@H]3CC=C4C[C@@H](NCCCCC(=O)NCCC(=O)N[C@@H](CCC(=O)O)C(=O)N[C@@H](CCC(=O)O)C(=O)NCCCCCC(=O)NC(C)(C)C(=O)NC(C)(C)C(=O)NC(C)(C)C(=O)N[C@@H](Cc5c[nH]c6ccccc56)C(=O)N[C@@H](Cc5c[nH]c6ccccc56)C(=O)N[C@@H](C)C(=O)N[C@@H](Cc5ccc(O)cc5)C(=O)N[C@@H](Cc5c[nH]c6ccccc56)C(=O)N5CCC[C@H]5C(=O)N[C@@H](C)C(=O)N[C@H](C(=O)N[C@@H](C)C(N)=O)C(C)C)CC[C@]4(C)[C@H]3CC[C@]12C [Compound 17, R = BEEXUUUWWAYWPAVA-CONH2] ({Pentanoyl(5-NH-cholesteryl)-βAla}-EE[Ahx][Aib][Aib][Aib]WWAYWPAVA-NH2) | – | – | – | 2.1 µM | – | – |
| CC(C)[C@H](NC(=O)[C@@H](NC(=O)[C@@H]1CCCN1C(=O)[C@@H]1CCCN1C(=O)[C@H](Cc1ccc(O)cc1)NC(=O)[C@H](Cc1ccc(O)cc1)NC(=O)[C@H](C)NC(=O)[C@H](Cc1ccc(O)cc1)NC(=O)[C@H](Cc1ccc(O)cc1)NC(=O)[C@H](C)NC(=O)[C@H](Cc1ccc(O)cc1)NC(=O)[C@H](Cc1ccc(O)cc1)NC(=O)C(C)(C)NC(=O)C(C)(C)NC(=O)C(C)(C)NC(=O)C(C)(C)N)C(C)C)C(N)=O [Compound 85] (H-[Aib][Aib][Aib][Aib]YYAYYAYYPPVV-NH2) | – | 4 ± 1 µM | – | – | >125% | – |
| CC(C)CCC[C@@H](C)[C@H]1CC[C@H]2[C@@H]3CC=C4C[C@@H](NCCCCC(=O)NCCC(=O)N[C@@H](CCC(=O)O)C(=O)N[C@@H](CCC(=O)O)C(=O)NCCCCCC(=O)N[C@@H](CO)C(=O)N[C@@H](CO)C(=O)N[C@@H](C)C(=O)N[C@@H](Cc5c[nH]c6ccccc56)C(=O)N[C@@H](Cc5c[nH]c6ccccc56)C(=O)N[C@@H](CO)C(=O)N[C@@H](Cc5ccc(O)cc5)C(=O)N[C@@H](Cc5c[nH]c6ccccc56)C(=O)N5CCC[C@H]5C(=O)N5CCC[C@H]5C(=O)N[C@H](C(=O)N[C@@H](C)C(N)=O)C(C)C)CC[C@]4(C)[C@H]3CC[C@]12C [Compound 6, R = BEEXSSAWWSYWPPVA-CONH2] ({Pentanoyl(5-NH-cholesteryl)-βAla}-EE[Ahx]SSAWWSYWPPVA-NH2) | – | – | – | 3.5 µM | – | – |
| Ch1-EEOOUUUUYYYYPPVV-NH2 [Compound 86] | – | 0.08 ± 0.01 µM | – | – | 125 ± 10% | – |
